Data set [1] has as its target T1, Human recombinant cathepsin K (Homo sapiens, UniProt P43235).
T1 construct: purchased B. Turk, Josef, Stefan Institute, Ljubljana, Slovenia
T1 sequence (P43235 115-329): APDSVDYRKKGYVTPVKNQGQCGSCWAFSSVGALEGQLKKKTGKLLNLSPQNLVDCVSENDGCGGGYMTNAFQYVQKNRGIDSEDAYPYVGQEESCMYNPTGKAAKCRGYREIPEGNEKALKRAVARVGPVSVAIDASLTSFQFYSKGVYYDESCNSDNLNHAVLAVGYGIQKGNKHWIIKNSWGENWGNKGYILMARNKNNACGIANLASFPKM
The data set is described as follows: In vitro cathepsin Ki inhibition measurements. It is filed as biochemical. As for the experimental part:
Stock solutions of substrate or inhibitor were made up to 10 mM in 100% dimethylsulfoxide (DMSO) (Rathburns, Glasgow, U.K.) and diluted as appropriately required. In all cases the DMSO concentration in the assays was maintained at less than 1% (vol./vol.). The equilibrium inhibition constants (Ki^ss) for each compound were measured under steady-state conditions monitoring enzyme activity as a function of inhibitor concentration. The values were calculated on the assumption of pure competitive behaviour (Cornish-Bowden, A. Fundamentals of enzyme kinetics Portland Press; 1995, 93-128.). Human recombinant cathepsin K (0.25 nM final; B. Turk, Josef, Stefan Institute, Ljubljana, Slovenia), was routinely assayed in 100 mM sodium acetate; pH 5.5 containing 1 mM EDTA, 10 mM L-cysteine and 1.8 μM Z-Leu-Arg-AMC ([S]=KM).
The apparent inhibition constant (Ki) for each compound was determined on the basis that inhibition was reversible and occurred by a pure-competitive mechanism. The Ki values were calculated, from the dependence of enzyme activity as a function of inhibitor concentration, by direct regression analysis (Prism v 3.02) using Equation 2 (Comish-Bowden, A., 1995.).
In situations where the apparent dissociation constant (Ki^app) approached the enzyme concentrations, the Ki^app values were calculated using a quadratic solution in the form described by Equation 3 (Morrison, J. F. Trends Biochem. Sci., 7, 102-105, 1982; Morrison, J. F. Biochim. Biophys. Acta. 185, 269-286, 1969; Stone, S. R. and Hofsteenge, J. Biochemistry, 25, 4622-4628, 1986).
Curves were fitted by non-linear regression analysis (Prism) using a fixed value for the enzyme concentration. Equation 4 was used to account for the substrate kinetics, where ‘Ki’ is the inhibition constant, ‘[So]’ is the initial substrate concentration and ‘KM^app’ is the apparent macroscopic binding (Michaelis) constant for the substrate (Morrison, 1982).

Data set [2] can be described thus: Plasma incubations (human plasma stability). The following applies: 37° C., 25 μM, percent remaining at 1 hour. It is filed as in vitro ADME.
Method: Human and rat plasma were purchased from Innovative Research Inc. (Southfield. Mich., USA). […] Aliquots were removed at 2 and 60 minutes and quenched with an equal volume of cold acetonitrile. After mixing vigorously, the precipitated protein matter was removed by filtration (Multiscreen Solvinert filter plates, Millipore, Bedford, Mass., USA) and the filtrate analysed by reverse phase HPLC with mass spectrometric detection, using single ion monitoring of the [M+H]^+ species. Metabolic turnover was determined by comparison of peak areas from the ion chromatograms of the parent compound at 2 and 60 minutes and expressed as percent remaining at 1 hour.
Where [3] appears, read: prior art WO-A-02057270 examples, Table 2, read-out: Ki (nM) vs Human Cathepsin K.
The mark [4] stands for this setting: Table 1, read-out: In vitro Ki (nM) vs Cath K.

Read-outs that look alike come from different tables or passages of the source.

Broadly, the Ki is a measure of affinity in units of concentration, obtained from inhibition or displacement. For “N-((S)-1-cyclopentyl-2-((3aS,6R,6aS)-6-methoxy-3-oxodihydro-2H-furo[3,2-b]pyrrol-4(5H,6H,6aH)-yl)-2-oxoethyl)-4-(2-(4-methylpiperazin-1-yl)thiazol-4-yl)benzamide [Example 2]”, the Ki in data set [1] (setting [3]) is more than 50000 nM.
For the molecule `CN1CCN(c2nc(-c3ccc(C(=O)N[C@H](C(=O)N4CC[C@H]5OCC(=O)[C@H]54)C4CCCC4)cc3)cs2)CC1` [Example 5, N-((S)-1-cyclopentyl-2-oxo-2-((3aS,6aR)-3-oxodihydro-2H-furo[3,2-b]pyrrol-4(5H,6H,6aH)-yl)-2-oxoethyl)-4-(2-(4-methylpiperazin-1-yl)thiazol-4-yl)benzamide], the “Human Plasma Stability % rem. @ 1 h” value in data set [2] is reported as 82.5%. Also, the Ki in data set [1] (setting [4]) is 1.3 nM.
For “N-((S)-4-methyl-1-oxo-1-((3aS,6aR)-3-oxodihydro-2H-furo[3,2-b]pyrrol-4(5H,6H,6aH)-yl)pentan-2-yl)-4-(2-(4-methylpiperazin-1-yl)thiazol-4-yl)benzamide [Example 3]”, the inhibition constant Ki in data set [1] (setting [3]) was more than 4000 nM.
With `CN1CCN(c2nc(-c3ccc(C(=O)N[C@@H](CC(C)(C)C)C(=O)N4CC[C@H]5OCC(=O)[C@H]54)cc3)cs2)CC1` [Example 4, N-((S)-4,4-dimethyl-1-oxo-1-((3aS,6aR)-3-oxodihydro-2H-furo[3,2-b]pyrrol-4(5H,6H,6aH)-yl)pentan-2-yl)-4-(2-(4-methylpiperazin-1-yl)thiazol-4-yl)benzamide], the “Human Plasma Stability % rem. @ 1 h” value in data set [2] is 91.9%. Moreover, the Ki in data set [1] (setting [4]) worked out at 1.7 nM.
For `CO[C@H]1CN(C(=O)[C@@H](NC(=O)c2ccc(-c3csc(N4CCN(C)CC4)n3)cc2)C2CCCC2)[C@@H]2C(=O)CO[C@H]12` [Example 1, N-((S)-1-cyclopentyl-2-((3aS,6S,6aS)-6-methoxy-3-oxodihydro-2H-furo[3,2-b]pyrrol-4(5H,6H,6aH)-yl)-2-oxoethyl)-4-(2-(4-methylpiperazin-1-yl)thiazol-4-yl)benzamide], in that order: 100% and 1.4 nM.
Consider `CO[C@@H]1CN(C(=O)[C@@H](NC(=O)c2ccc(-c3csc(N4CCN(C)CC4)n3)cc2)C2CCCC2)[C@@H]2C(=O)CO[C@@H]21` [Example 2, N-((S)-1-cyclopentyl-2-((3aS,6R,6aS)-6-methoxy-3-oxodihydro-2H-furo[3,2-b]pyrrol-4(5H,6H,6aH)-yl)-2-oxoethyl)-4-(2-(4-methylpiperazin-1-yl)thiazol-4-yl)benzamide], for which the “Human Plasma Stability % rem. @ 1 h” value in data set [2] came to 98.2%. Besides, the inhibitory constant (Ki) in data set [1] (setting [4]) was 1.9 nM.
For `CC(C)C[C@H](NC(=O)c1ccc(C(C)(C)C)cc1)C(=O)N1CC[C@H]2OCC(=O)[C@H]21` [Prior art compound 23, reference compound], in that order: 75% and 87.4 nM.
For `CC(C)C[C@H](NC(=O)c1ccc(-c2csc(N3CCN(C)CC3)n2)cc1)C(=O)N1CC[C@H]2OCC(=O)[C@H]21` [Example 3, N-((S)-4-methyl-1-oxo-1-((3aS,6aR)-3-oxodihydro-2H-furo[3,2-b]pyrrol-4(5H,6H,6aH)-yl)pentan-2-yl)-4-(2-(4-methylpiperazin-1-yl)thiazol-4-yl)benzamide], in that order: 92.6% and 1.7 nM.

The values are drawn from US7799791B2, “Tetrahydrofuro(3,2-B) pyrrol-3-one derivatives as inhibitors of cysteine proteinases” (Amura Therapeutics Limited, priority 2007, dated 2010).
